# Measurements published in ChEMBL document CHEMBL1201862, “PubChem BioAssay data set” (2004).
# The source made the active and inactive calls.
# Tests used:
# [1] = biological target: Glyceraldehyde-3-phosphate dehydrogenase (Homo sapiens, UniProt P04406)
# Bcl-2-related protein A1 [2] = biological target: T1, Bcl-2-related protein A1 (Mus musculus, UniProt Q07440); assay: Bfl-1 inhibitors blocking BH3 peptide binding, confirmation, biochemical, TR-FRET, mouse Bfl-1 (AID 621);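 note: TR-FRET binding of GST-Bfl-1 to FITC-labelled Bid peptide via terbium antibody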
# T1 sequence (Q07440 whole entry): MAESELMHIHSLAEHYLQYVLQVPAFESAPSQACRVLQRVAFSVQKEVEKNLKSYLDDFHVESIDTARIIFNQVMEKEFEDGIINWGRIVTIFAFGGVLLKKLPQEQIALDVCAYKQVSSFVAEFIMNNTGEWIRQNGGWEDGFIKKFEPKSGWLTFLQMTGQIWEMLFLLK
# Bcl-2-related protein A1 [3] = biological target: T1, Bcl-2-related protein A1; assay: Bfl-1 binding inhibitors, SAR follow-up, biochemical, fluorescence polarization (AID 1070)
# Mucolipin-3 [4] = biological target: T2, Mucolipin-3 (Homo sapiens, UniProt Q8TDD5); assay: Dose response cell-based high-throughput screening assay for agonists of the transient receptor potential channel ML3 (TRPML3). [Related pubchem assays: 1526, 1424, 1448 ]; type: functional
# T2 sequence (Q8TDD5 whole entry): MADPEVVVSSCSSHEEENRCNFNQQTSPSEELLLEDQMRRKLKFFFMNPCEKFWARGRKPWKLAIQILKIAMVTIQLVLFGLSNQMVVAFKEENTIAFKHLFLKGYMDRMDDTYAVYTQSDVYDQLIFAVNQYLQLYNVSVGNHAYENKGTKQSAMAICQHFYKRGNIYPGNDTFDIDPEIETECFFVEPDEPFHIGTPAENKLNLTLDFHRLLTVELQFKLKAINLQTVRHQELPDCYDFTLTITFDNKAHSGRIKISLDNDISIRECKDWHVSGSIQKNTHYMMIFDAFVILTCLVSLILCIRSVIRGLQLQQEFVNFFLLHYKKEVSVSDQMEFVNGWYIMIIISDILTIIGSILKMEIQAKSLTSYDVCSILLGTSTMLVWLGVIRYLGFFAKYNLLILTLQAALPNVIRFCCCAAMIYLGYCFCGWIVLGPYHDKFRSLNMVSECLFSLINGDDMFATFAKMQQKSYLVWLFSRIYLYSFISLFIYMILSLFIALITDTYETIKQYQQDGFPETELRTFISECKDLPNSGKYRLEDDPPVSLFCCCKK
# Ion channel NompC [5] = biological target: T3, Ion channel NompC (Danio rerio, UniProt Q7T1G6); assay: Late stage counterscreen for the probe development effort to identify selective agonists of the Transient Receptor Potential Channels 3 (TRPML3): fluorescence-based cell-based dose response assay for TRPN1 agonists.; type: functional
# Mucolipin-3 [6] = biological target: T2, Mucolipin-3; assay: TRPML3 agonist potency, dose response, cell-based, calcium fluorescence (AID 2510); type: functional
# Ion channel NompC [7] = biological target: T3, Ion channel NompC; assay: Fluorescence counterscreen assay for TRPML3 agonists: dose response cell-based high-throughput screening assay to identify agonists of the transient receptor potential channel N1 (TRPN1). [Related pubchem assays: 1526, 1424, 1448 ]; type: functional
# [8] = biological target: T4, Heat shock factor protein 1 (Mus musculus, UniProt P38532); assay: HSF1 potentiators in luciferase reporter cells, confirmation, cell-based, NIH3T3, luminescence, dose retest (AID 435004); type: functional;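 note: stress induced by proteasome inhibitor MG132 added 30 min after compound; luciferase reporter driven by HSF1 response element in NIH3T3 cells; actives raise luminescence as potentiators of the MG132 stress response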
# T4 sequence (P38532 whole entry): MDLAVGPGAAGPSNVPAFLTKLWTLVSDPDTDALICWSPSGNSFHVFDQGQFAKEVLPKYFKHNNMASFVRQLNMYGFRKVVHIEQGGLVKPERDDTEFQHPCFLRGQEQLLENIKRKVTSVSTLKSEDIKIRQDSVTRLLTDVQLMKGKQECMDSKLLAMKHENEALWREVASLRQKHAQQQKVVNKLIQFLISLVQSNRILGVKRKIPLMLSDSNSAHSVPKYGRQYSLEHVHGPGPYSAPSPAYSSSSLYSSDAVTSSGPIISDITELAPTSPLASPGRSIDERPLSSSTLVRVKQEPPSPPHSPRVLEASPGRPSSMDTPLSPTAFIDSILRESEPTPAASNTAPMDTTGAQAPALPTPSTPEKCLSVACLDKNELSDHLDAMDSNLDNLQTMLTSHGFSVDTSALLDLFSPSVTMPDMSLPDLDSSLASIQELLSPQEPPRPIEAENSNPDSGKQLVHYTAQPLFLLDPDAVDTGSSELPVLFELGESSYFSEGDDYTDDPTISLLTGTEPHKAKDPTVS
# [9] = biological target: T5, Dual specificity protein phosphatase 6 (Rattus norvegicus, UniProt Q64346); assay: MKP-3 phosphatase inhibitors, primary screen, biochemical, rat enzyme, in vitro (AID 425)
# T5 sequence (Q64346 whole entry): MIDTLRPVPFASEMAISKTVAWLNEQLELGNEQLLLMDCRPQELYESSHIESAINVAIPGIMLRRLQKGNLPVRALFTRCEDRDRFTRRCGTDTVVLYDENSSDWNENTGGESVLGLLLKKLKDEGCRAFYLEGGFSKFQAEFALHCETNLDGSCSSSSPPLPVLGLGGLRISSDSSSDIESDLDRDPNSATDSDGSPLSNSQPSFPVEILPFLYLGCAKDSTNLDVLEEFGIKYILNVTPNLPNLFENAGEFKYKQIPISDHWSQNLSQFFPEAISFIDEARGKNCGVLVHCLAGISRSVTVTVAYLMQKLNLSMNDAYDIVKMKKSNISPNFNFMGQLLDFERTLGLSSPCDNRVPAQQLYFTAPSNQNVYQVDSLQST
# [10] = Luminescence Cell-Based Dose Confirmation HTS to Identify Inhibitors of Polyadenylation.; type: functional
# [11] = biological target: T6, Orexin/Hypocretin receptor type 1 (Homo sapiens, UniProt O43613); assay: (§1) Fluorescence-based cell-based high throughput dose response assay for antagonists of the orexin 1 receptor (OX1R; HCRTR1). [Related pubchem assays (depositor defined):AID434989, AID435008, AID463079, AID485270, AID492963, AID492964, AID492965, AID493232, AID504717, AID504718]; type: functional
# T6 sequence (O43613 whole entry): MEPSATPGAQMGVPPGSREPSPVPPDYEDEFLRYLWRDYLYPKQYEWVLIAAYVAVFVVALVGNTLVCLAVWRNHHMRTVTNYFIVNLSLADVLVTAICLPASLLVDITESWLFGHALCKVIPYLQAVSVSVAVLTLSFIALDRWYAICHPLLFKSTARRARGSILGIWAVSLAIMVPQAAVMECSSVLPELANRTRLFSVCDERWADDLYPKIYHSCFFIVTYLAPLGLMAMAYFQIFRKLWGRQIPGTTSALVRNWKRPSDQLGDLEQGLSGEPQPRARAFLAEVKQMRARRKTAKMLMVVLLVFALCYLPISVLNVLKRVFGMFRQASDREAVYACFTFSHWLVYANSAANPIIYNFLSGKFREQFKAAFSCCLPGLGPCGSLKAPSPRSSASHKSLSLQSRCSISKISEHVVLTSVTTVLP
# [12] = biological target: T6, Orexin/Hypocretin receptor type 1; assay: as §1, with “Homogeneous Time Resolved Fluorescence (HTRF)-based” for “Fluorescence-based”; type: functional
# Orexin receptor type 2 [13] = biological target: T7, Orexin receptor type 2 (Homo sapiens, UniProt O43614); assay: Counterscreen assay for antagonists of the orexin 1 receptor (OX1R; HCRTR1): Homogeneous Time Resolved Fluorescence (HTRF)-based cell-based dose response assay for antagonists of the orexin 2 receptor (OX2R; HCRTR2), run by assay provider.; type: functional
# T7 sequence (O43614 whole entry): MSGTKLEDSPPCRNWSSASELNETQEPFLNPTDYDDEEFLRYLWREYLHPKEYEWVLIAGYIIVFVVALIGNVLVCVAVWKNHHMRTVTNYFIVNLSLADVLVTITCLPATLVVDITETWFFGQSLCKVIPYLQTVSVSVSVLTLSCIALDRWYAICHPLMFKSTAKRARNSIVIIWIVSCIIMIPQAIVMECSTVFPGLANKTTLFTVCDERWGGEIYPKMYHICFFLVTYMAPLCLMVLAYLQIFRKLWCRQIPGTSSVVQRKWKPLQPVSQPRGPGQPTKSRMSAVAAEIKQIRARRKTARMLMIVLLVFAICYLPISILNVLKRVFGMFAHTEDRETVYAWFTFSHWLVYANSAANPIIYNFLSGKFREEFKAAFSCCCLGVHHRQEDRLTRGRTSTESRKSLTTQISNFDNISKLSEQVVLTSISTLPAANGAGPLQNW
# [14] = (§2) Counterscreen for antagonists of the orexin 1 receptor (OX1R; HCRTR1): Fluorescence-based cell-based high throughput dose response assay to identify antagonists of the parental CHO cell line. [Related pubchem assays (depositor defined):AID434989, AID435008, AID463079, AID485270, AID492963, AID492964, AID492965, AID493232, AID504699, AID504701]; type: functional
# [15] = M. tuberculosis growth inhibition, HTS (AID 449762); type: functional
# CHO-K1 = assay: as §2, with “Homogeneous time resolved fluorescence (HTRF)-based” for “Fluorescence-based”, “cell-based” for “cell-based high throughput”, “CHO-K1” for “CHO”; type: functional; conditions: Cricetulus griseus;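 note: potency for inhibition of ATP-stimulated IP1 production as antagonists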
# Orexin receptor type 2 [16] = biological target: T7, Orexin receptor type 2; assay: Counterscreen assay for antagonists of the orexin 1 receptor (OX1R; HCRTR1): Fluorescence-based cell-based dose response assay for antagonists of the orexin 2 receptor (OX2R; HCRTR2), run by assay provider.; type: functional
# [17] = biological target: 5-hydroxytryptamine receptor 1E (Homo sapiens, UniProt P28566); assay: Counterscreen assay for S1P3 antagonists: Dose response cell-based high throughput screening assay to identify antagonists of the 5-Hydroxytryptamine Receptor Subtype 1E (5HT1E). [Related pubchem assays: 1429, 485 ]; type: functional
# [18] = biological target: Sphingosine 1-phosphate receptor 3 (Homo sapiens, UniProt Q99500); assay: Dose response cell-based high throughput screening assay for antagonists of the Sphingosine 1-Phosphate Receptor 3 (S1P3). [Related pubchem assays: 1429, 485 ]; type: functional
# [19] = biological target: Sphingosine 1-phosphate receptor 2 (Homo sapiens, UniProt O95136); assay: Dose Response Cell Based Assay for Agonists of the S1P2 Receptor. [Related pubchem assays: 729, 736, 843 ]; type: functional
# Cytochrome P450 2C19 = Cytochrome P450 2C19 (Homo sapiens, UniProt P33261); assay: qHTS Assay for Inhibitors and Substrates of Cytochrome P450 2C19. [Related pubchem assays: 410 ]; type: ADME; conditions: read-out: Potency
# [20] = biological target: Ubiquitin carboxyl-terminal hydrolase BAP1 (Homo sapiens, UniProt Q92560); assay: BAP1 deubiquitinase inhibitors, dose response, biochemical (AID 714); type: functional
# [21] = biological target: Aryl hydrocarbon receptor (Homo sapiens, UniProt P35869); assay: Luminescence-based cell-based high throughput dose response assay for activators of the Aryl Hydrocarbon Receptor (AHR). [Related pubchem assays: 2796 (Primary screen (AHR activators in singlicate)), 2845 (Confirmation screen (AHR activators in triplicate)), 434939 (Counterscreen (PXR activators in triplicate)), 2804 (Summary (AHR activators))]; type: ADME
# NADPH oxidase 1 = NADPH oxidase 1 (Homo sapiens, UniProt Q9Y5S8); type: functional, cell-based;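 note: Cell-based assay with luminescence read-out, IC50 derived from inhibitor dose-response curves; intracellular ROS from endogenous NOX1 in intact HT29 colon cancer cells; potency of inhibitors that lower the ROS luminescence signal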
# [22] = biological target: Photoreceptor-specific nuclear receptor (Homo sapiens, UniProt Q9Y5X4); assay: NR2E3 inverse agonists, dose response, biochemical, TR-FRET (AID 463256); type: functional
# [23] = biological target: Peroxisome proliferator-activated receptor gamma/Nuclear receptor corepressor 2 (Homo sapiens, UniProt P37231+Q9Y618); assay: Counterscreen for NR2E3 inverse agonists: TR-FRET-based biochemical high throughput dose response assay to identify inverse agonists of the interaction between peroxisome proliferator-activated receptor gamma (PPARg) and nuclear receptor co-repressor 2 (NCOR2).; type: functional
# Sequence of Peroxisome proliferator-activated receptor gamma/Nuclear receptor corepressor 2 (P37231 whole entry): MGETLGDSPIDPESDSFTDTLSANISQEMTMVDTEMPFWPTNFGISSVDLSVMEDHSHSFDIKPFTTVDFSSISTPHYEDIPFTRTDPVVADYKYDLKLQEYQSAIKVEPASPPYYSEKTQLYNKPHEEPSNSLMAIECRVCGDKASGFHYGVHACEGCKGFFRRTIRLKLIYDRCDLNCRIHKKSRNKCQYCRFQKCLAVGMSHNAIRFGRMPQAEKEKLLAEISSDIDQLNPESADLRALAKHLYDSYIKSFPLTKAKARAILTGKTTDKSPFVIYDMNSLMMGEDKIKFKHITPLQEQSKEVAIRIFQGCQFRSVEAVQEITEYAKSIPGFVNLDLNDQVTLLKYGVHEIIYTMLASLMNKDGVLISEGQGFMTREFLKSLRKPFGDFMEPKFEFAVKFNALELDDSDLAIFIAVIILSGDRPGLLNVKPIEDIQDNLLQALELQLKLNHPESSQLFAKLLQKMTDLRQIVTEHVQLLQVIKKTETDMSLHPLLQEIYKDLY
# Sequence of Peroxisome proliferator-activated receptor gamma/Nuclear receptor corepressor 2 (Q9Y618 whole entry): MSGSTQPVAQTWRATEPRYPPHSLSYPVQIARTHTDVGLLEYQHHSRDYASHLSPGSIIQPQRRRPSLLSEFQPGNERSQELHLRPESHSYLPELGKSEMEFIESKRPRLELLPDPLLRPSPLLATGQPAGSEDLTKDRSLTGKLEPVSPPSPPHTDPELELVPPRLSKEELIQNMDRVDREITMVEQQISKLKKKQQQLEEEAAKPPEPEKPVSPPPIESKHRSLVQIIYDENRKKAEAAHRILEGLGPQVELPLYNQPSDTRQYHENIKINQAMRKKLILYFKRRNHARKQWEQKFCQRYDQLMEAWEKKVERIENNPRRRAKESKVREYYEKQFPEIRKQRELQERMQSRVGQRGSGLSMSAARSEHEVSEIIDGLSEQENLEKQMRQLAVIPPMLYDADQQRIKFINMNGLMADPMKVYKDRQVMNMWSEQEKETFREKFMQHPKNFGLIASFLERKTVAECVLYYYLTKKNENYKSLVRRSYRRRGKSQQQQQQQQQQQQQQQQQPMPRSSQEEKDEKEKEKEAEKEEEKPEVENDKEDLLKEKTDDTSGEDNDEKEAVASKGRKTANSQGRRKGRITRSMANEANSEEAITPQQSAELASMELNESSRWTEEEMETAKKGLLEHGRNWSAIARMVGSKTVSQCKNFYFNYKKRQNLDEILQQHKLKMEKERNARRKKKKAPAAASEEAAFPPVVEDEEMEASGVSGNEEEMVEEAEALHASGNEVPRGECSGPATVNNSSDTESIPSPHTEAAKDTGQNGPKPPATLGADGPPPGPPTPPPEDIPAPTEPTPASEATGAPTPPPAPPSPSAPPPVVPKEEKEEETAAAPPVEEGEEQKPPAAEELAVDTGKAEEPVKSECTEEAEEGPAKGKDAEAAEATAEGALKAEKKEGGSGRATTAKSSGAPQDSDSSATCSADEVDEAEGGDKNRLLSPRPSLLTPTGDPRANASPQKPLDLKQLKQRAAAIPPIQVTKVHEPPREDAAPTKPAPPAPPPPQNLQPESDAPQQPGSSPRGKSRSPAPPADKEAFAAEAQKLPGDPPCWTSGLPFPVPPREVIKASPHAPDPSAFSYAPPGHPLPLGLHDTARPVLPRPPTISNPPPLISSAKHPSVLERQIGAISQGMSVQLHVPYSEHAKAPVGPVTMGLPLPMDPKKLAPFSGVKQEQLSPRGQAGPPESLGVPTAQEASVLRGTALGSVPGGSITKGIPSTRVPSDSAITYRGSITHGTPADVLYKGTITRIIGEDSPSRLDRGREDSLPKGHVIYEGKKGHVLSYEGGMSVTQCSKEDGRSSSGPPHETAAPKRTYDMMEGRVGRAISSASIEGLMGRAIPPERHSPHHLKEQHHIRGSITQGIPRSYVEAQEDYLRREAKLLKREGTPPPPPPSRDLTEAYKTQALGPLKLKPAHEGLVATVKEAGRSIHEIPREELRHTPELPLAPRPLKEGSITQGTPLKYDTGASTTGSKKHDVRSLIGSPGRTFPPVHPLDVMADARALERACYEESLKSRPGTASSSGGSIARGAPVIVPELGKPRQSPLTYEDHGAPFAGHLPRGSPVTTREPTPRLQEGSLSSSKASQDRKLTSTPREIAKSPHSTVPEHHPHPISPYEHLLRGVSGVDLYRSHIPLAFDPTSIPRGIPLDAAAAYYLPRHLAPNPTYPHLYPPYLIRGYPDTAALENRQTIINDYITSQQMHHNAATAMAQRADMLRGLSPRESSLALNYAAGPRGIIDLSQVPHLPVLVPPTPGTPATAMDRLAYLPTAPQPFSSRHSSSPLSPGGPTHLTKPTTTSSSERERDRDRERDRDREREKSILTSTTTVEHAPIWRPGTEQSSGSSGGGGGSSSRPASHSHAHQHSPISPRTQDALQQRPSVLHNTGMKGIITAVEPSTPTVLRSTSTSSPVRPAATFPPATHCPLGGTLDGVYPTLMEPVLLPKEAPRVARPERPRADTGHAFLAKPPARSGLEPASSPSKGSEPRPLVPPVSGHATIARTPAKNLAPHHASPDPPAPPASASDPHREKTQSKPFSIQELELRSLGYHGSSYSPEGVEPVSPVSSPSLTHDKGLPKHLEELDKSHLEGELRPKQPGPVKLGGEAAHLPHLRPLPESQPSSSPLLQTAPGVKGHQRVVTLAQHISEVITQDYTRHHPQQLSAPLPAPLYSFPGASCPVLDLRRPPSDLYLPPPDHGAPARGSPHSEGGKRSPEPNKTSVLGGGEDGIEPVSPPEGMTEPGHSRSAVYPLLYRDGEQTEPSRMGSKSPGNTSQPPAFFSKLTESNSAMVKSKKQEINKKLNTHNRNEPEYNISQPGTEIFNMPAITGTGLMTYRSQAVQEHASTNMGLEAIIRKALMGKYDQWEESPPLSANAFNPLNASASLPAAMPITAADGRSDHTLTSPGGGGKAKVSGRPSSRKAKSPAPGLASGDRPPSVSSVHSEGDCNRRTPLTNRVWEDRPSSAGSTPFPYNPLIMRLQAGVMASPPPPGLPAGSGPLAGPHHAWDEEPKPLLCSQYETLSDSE
# T3 sequence (Q7T1G6 whole entry): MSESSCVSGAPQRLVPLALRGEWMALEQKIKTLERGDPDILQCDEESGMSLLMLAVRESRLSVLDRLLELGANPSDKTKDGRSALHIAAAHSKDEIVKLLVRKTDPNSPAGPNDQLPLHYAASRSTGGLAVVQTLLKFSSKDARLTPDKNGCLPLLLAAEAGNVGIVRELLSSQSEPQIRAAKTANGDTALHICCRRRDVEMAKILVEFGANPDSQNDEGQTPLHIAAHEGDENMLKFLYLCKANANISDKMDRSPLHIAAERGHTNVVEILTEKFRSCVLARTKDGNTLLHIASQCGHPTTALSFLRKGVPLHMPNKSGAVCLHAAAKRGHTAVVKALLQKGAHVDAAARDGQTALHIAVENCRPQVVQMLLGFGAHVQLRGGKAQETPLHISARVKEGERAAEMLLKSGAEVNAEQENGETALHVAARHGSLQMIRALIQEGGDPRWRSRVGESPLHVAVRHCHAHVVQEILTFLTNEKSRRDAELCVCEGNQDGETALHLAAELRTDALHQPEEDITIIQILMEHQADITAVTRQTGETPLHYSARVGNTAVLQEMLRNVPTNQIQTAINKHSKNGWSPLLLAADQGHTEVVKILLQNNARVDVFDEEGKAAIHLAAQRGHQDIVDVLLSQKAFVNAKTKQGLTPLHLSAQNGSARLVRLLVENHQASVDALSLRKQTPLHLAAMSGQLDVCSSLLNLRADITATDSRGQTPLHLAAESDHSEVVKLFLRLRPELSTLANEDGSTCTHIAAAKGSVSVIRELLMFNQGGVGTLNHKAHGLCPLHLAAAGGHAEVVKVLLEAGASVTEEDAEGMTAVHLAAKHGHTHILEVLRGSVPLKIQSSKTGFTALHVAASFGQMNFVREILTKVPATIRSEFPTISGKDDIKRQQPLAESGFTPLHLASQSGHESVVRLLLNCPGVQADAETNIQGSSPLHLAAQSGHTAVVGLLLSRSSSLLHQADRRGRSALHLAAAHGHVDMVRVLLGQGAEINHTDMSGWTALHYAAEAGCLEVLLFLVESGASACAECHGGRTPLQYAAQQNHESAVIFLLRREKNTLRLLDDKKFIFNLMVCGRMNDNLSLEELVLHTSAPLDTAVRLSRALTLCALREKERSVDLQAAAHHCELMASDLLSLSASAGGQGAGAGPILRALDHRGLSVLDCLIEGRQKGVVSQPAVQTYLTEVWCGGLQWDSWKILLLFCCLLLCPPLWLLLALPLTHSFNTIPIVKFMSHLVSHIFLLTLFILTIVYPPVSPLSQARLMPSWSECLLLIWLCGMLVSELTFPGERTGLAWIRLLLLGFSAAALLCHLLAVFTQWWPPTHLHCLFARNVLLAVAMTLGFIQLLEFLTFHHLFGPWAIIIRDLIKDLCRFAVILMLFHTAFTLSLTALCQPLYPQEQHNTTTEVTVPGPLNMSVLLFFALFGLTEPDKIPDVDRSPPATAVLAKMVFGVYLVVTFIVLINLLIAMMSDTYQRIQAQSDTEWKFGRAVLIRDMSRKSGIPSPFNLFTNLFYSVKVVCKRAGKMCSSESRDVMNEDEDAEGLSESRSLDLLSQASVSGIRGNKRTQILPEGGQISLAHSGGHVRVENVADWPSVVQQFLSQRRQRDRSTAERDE
# Sequence of Sphingosine 1-phosphate receptor 2 (O95136 whole entry): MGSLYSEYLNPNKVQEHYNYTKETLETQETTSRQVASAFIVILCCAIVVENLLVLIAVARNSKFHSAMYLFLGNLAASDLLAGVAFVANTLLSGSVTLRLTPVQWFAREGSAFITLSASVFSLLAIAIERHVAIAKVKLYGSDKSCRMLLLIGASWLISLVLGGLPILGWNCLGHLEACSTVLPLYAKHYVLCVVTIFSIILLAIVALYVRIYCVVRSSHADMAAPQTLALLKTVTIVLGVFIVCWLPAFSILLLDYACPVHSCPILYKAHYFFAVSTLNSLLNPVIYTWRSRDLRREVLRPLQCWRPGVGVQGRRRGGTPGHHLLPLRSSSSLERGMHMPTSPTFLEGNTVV
smiles,measurement,setting,value
O=C1C(Cl)=C(NCc2ccccc2)C(=O)N1c1ccc(Cl)c(Cl)c1,IC50,[1],> 100 µM (not active)
same,IC50,Bcl-2-related protein A1 [2],73.7 µM (active)
same,IC50,Bcl-2-related protein A1 [3],> 100 µM (not active)
CCCOc1cc(C)c(Cl)cc1S(=O)(=O)N(CC)CC,EC50,Mucolipin-3 [4],1.6 µM (active)
same,EC50,Ion channel NompC [5],> 29.9 µM (not active)
same,EC50,Mucolipin-3 [6],4.72 µM (active)
same,EC50,Ion channel NompC [7],> 29.9 µM (not active)
[O-]/[N+](=C\c1ccc(OC(F)F)cc1)c1ccccc1,EC50,[8],> 260 µM (inactive)
same,IC50,[9],> 100 µM (not active)
CC(NC(=O)c1ccc(Br)cc1Br)c1ccccc1 (stereo unspecified),EC50,[10],> 120 µM (not active)
N#C/C(=C1\CCCN1)c1nc(-c2ccccc2)cs1,IC50,[11],7.67 µM (active)
same,IC50,[12],2.44 µM (active)
same,IC50,Orexin receptor type 2 [13],> 50 µM (inactive)
same,IC50,[14],> 49.8 µM (inactive)
same,IC50,[15],> 100 µM (active)
same,IC50,CHO-K1,> 66.2 µM (inactive)
same,IC50,Orexin receptor type 2 [16],> 88.8 µM (inactive)
O=C(CSc1nnc(-c2ccc(Br)o2)n1Cc1ccccc1)c1ccccc1F,IC50,[17],> 50 µM (not active)
same,IC50,[18],> 50 µM (not active)
Oc1nc(-c2cccs2)nc2ccccc12,EC50,[19],> 50 µM (not active)
CC(C)C[C@@H](CC(=O)N[C@H](CC(=O)N[C@@H]1CCNC[C@H]1C(=O)N[C@H](CC(=O)N[C@@H](CCC(=O)O)CC(=O)O)Cc1ccccc1)C(C)C)NC(=O)[C@@H]1CCCC[C@H]1N,AC50,Cytochrome P450 2C19,39.8 µM (inconclusive)
Cc1sc(NC(=O)CSc2nnc(C)c(=O)[nH]2)c(C#N)c1C,IC50,[20],> 50 µM (not active)
CCOc1ccc(-c2cc(C)n3nc(C(N)=O)cc3n2)cc1,EC50,[21],2.63 µM (active)
COc1ccc2c(Cl)c(C(=O)Oc3ccccc3Cl)sc2c1,IC50,NADPH oxidase 1,> 17 µM (not active)
Cc1cc(=O)oc2cc(OCC(=O)NCCc3c[nH]c4ccc(F)cc34)ccc12,IC50,[22],6.11 µM (active)
same,IC50,[23],8.78 µM (active)
